The results in this text go back to patent publication USRE48335E1, “Polymyxin derivatives as antimicrobial compounds” (priority 2014, dated 2020).

For one experiment, the system named is Acinetobacter baumannii. Summed up:
(§1)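 Lipopeptide TFA salts are serially diluted in cation-adjusted Mueller-Hinton broth and inoculated per the CLSI M100-S18 broth microdilution method. The MIC is then recorded, with polymyxin B sulphate included as a control.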

For another experiment, the system named is Enterobacter cloacae. A digest of the protocol: as §1
A further experiment relates to Klebsiella pneumoniae. Summed up:
as §1

A further experiment concerns Pseudomonas aeruginosa. A digest of the protocol: as §1
The test system of a further experiment is P. aeruginosa ATCC 27853. In words: In vivo efficacy in mouse blood infection model (neutropenic Swiss mice). Particulars: compound, free base 4 mg/kg intravenously 2 h after inoculation, blood at 4 h. Here is the method:
P. aeruginosa ATCC 27853, A. baumannii ATCC 19606 and K. pneumoniae FADDI-KP032 were subcultured on nutrient agar plates. One colony of each bacterial strain was dispersed in 10-mL CAMHB and incubated overnight. On day 2, an aliquot (0.2 mL) of each overnight culture suspension was dispersed in 20-mL CAMHB and incubated for 1.5-2.5 h for production of early log-phase growth bacterial culture. The bacteria in the early log-phase growth suspension were concentrated by centrifugation (3,220 g for 10 min) and re-suspended in sterile 0.9% saline for inoculation into mice. The bacterial cell concentration (colony forming unit [CFU]/mL) in saline was estimated by determining the optical density (OD) of the suspension at 600 nm, and confirmed by plating the suspension on nutrient agar plates. Swiss mice (22 to 28 g) were rendered neutropenic by injecting two doses of cyclophosphamide intraperitoneally, −4 day (150 mg/kg) and −1 day (100 mg/kg) prior to inoculation. Bloodstream infection was established by injecting intravenously 50 μL of early log-phase bacterial suspension (10^8-10^9 CFU/mL). The exact injection volume for each bacterial suspension was calculated based upon the OD value of the bacterial suspension and the desired inoculum for each isolate.
Solutions for administration of colistin, polymyxin B or the compounds were prepared at a concentration of 1 mg (free base) per mL in sterile 0.9% saline. At 2 h after inoculation, a mouse in the treatment groups was injected intravenously with one of the above solutions at 4 μL/g body weight (BW) (i.e. free base 4 mg/kg BW), while the same volume of saline was injected into the control mice. At 0 h or at 4 h after the administration of antibacterial drug or saline (control), animals were euthanised by inhalation of overdose isoflurane. The skin on the chest and fore-paws of each animal was thoroughly cleansed with 70% ethanol and Betadine®. The blood was collected via cardiac puncture using a 1-mL syringe rinsed with heparin (5,000 IU/mL), diluted serially in sterile 0.9% saline and plated on nutrient agar plates using a spiral plater.
The agar plates were incubated at 37° C. overnight. The bacterial colonies on the plate were counted and CFU/mL of the blood was calculated. The log10 CFU/mL of blood in each mouse was calculated. The in vivo activity of the compounds against the bacteria was calculated as the difference of the log10 CFU/mL values between the treated mice and the control mice at 4 h (Δ log=log10 (treated)CFU/mL−log10 (control)CFU/mL).
Any compound showing a decrease in bacterial loading (Δ log) of ≥2 at 4 h is considered to have good in vivo efficacy in this initial screening model.

Each structure is given as a SMILES string. Converted amounts (≈) assume the structure as drawn. Positions of bridges follow the written chain, without caps; N, C: chain ends. Non-standard residues stand in square brackets, D forms with d. Residues, ends and D or L forms follow the SMILES beside them. *: point of attachment. Benzoyl(4-Et) = CCc1ccc(C(=O)*)cc1; Butanoyl(4-Ph) = O=C(CCCc1ccccc1)*; Octanoyl = CCCCCCCC(=O)*; Dab = NCC[C@H](N)C(=O)O; Abu = CC[C@H](N)C(=O)O; Dap = NC[C@H](N)C(=O)O; Hexanoyl = CCCCCC(=O)*

`CC(C)C[C@H]1NC(=O)[C@H](CCN)NC(=O)[C@@H](NC(=O)[C@H](CN)NC(=O)[C@@H](NC(=O)[C@H](CCN)NC(=O)CCCc2ccccc2)[C@@H](C)O)CCNC(=O)[C@H]([C@@H](C)O)NC(=O)[C@H](CCN)NC(=O)[C@H](CCN)NC(=O)[C@H](C)NC1=O` [Compound 146] ({Butanoyl(4-Ph)}-[Dab]T[Dap][Dab][Dab][dL]A[Dab][Dab]T; lactam 4-C): in the experiment on Acinetobacter baumannii, the minimal inhibitory concentration (MIC) (usually the lowest concentration found to suppress growth) was found to be 4 µg/mL (≈ 3.57 µM); the “Minimum inhibitory concentration (MIC), Ab ATCC 17978” value came to 1 µg/mL (≈ 0.893 µM); the “Minimum inhibitory concentration (MIC), Ab ATCC 19606” value was 4 µg/mL (≈ 3.57 µM); the “Minimum inhibitory concentration (MIC), Ab FADDI-AB034” value worked out at 2 µg/mL (≈ 1.79 µM). In addition, in the experiment on Enterobacter cloacae, the “Minimum inhibitory concentration (MIC), Ec FADDI-EC001” value worked out at 0.5 µg/mL (≈ 0.447 µM); the “Minimum inhibitory concentration (MIC), Ec FADDI-EC003” value amounted to 0.25 µg/mL (≈ 0.223 µM); the “Minimum inhibitory concentration (MIC), Ec FADDI-EC006” value was 0.5 µg/mL (≈ 0.447 µM). In addition, the minimum inhibitory concentration (MIC) in the experiment with Klebsiella pneumoniae was 0.5 µg/mL (≈ 0.447 µM). For the same molecule, in the experiment on Pseudomonas aeruginosa, the MIC was 0.5 µg/mL (≈ 0.447 µM); the “Minimum inhibitory concentration (MIC), Pa ATCC 27853” value turned out to be 0.5 µg/mL (≈ 0.447 µM); the “Minimum inhibitory concentration (MIC), Pa FADDI-PA022” value turned out to be 0.5 µg/mL (≈ 0.447 µM); the “Minimum inhibitory concentration (MIC), Pa FADDI-PA025” value is more than 32 µg/mL. Also, the “Δ log (Treated-Control at 4 h)” value with P. aeruginosa ATCC 27853 is −3.63 log10 CFU/mL.
For `CCc1ccc(C(=O)N[C@@H](CCN)C(=O)N[C@H](C(=O)N[C@@H](CN)C(=O)N[C@H]2CCNC(=O)[C@H]([C@@H](C)O)NC(=O)[C@H](CCN)NC(=O)[C@H](CCN)NC(=O)[C@H](CC)NC(=O)[C@@H](CC(C)C)NC(=O)[C@H](CCN)NC2=O)[C@@H](C)O)cc1` [Compound 100] ({Benzoyl(4-Et)}-[Dab]T[Dap][Dab][Dab][dL][Abu][Dab][Dab]T; lactam 4-C), in the experiment with Acinetobacter baumannii, the MIC came out at 2 µg/mL (≈ 1.79 µM); the “Minimum inhibitory concentration, Ab A ATCC 17978” value is 1 µg/mL (≈ 0.893 µM); the “Minimum inhibitory concentration, Ab ATCC 19606” value came to 2 µg/mL (≈ 1.79 µM); the “Minimum inhibitory concentration, Ab FADDI-AB034” value is 1 µg/mL (≈ 0.893 µM). Also, in the experiment with Enterobacter cloacae, the “Minimum inhibitory concentration, Ec FADDI-EC001” value is 0.25 µg/mL (≈ 0.223 µM); the “Minimum inhibitory concentration, Ec FADDI-EC003” value was 0.5 µg/mL (≈ 0.447 µM); the “Minimum inhibitory concentration, Ec FADDI-EC006” value is 0.5 µg/mL (≈ 0.447 µM). This molecule also had an MIC against Klebsiella pneumoniae of 0.5 µg/mL (≈ 0.447 µM). In the experiment with Pseudomonas aeruginosa, the MIC was 0.5 µg/mL (≈ 0.447 µM); the “Minimum inhibitory concentration, Pa ATCC 27853” value was determined as 0.5 µg/mL (≈ 0.447 µM); the “Minimum inhibitory concentration, Pa FADDI-PA022” value was found to be 0.5 µg/mL (≈ 0.447 µM); the “Minimum inhibitory concentration, Pa FADDI-PA025” value stood at 2 µg/mL (≈ 1.79 µM). In addition, in the experiment with P. aeruginosa ATCC 27853, the “Δ log (Treated-Control at 4 h)” value was −3.83 (−3.83) log10 CFU/mL.
Consider `CCCCCC(=O)N[C@@H](CCN)C(=O)N[C@H](C(=O)N[C@@H](CCN)C(=O)N[C@H]1CCNC(=O)[C@H]([C@@H](C)O)NC(=O)[C@H](CCN)NC(=O)[C@H](CCN)NC(=O)[C@H]([C@@H](C)O)NC(=O)[C@@H](CC(C)C)NC(=O)[C@H](CCN)NC1=O)[C@@H](C)O` [Compound 26] (Hexanoyl-[Dab]T[Dab][Dab][Dab][dL]T[Dab][Dab]T; lactam 4-C), for which, in the experiment on Acinetobacter baumannii, the MIC is 16 µg/mL (≈ 14.3 µM); the “Minimum inhibitory concentration, Ab A ATCC 17978” value turned out to be 8 µg/mL (≈ 7.17 µM); the “Minimum inhibitory concentration, Ab ATCC 19606” value was determined as 16 µg/mL (≈ 14.3 µM); the “Minimum inhibitory concentration, Ab FADDI-AB034” value came out at 16 µg/mL (≈ 14.3 µM). Besides, in the experiment with Enterobacter cloacae, the “Minimum inhibitory concentration, Ec FADDI-EC001” value was 0.5 µg/mL (≈ 0.448 µM); the “Minimum inhibitory concentration, Ec FADDI-EC003” value stood at 0.5 µg/mL (≈ 0.448 µM); the “Minimum inhibitory concentration, Ec FADDI-EC006” value is 1 µg/mL (≈ 0.897 µM). The MIC against Klebsiella pneumoniae turned out to be 2 µg/mL (≈ 1.79 µM). Also, in the experiment on Pseudomonas aeruginosa, the minimal inhibitory concentration (MIC) amounted to 0.5 µg/mL (≈ 0.448 µM); the “Minimum inhibitory concentration, Pa ATCC 27853” value was 0.5 µg/mL (≈ 0.448 µM); the “Minimum inhibitory concentration, Pa FADDI-PA022” value worked out at 2 µg/mL (≈ 1.79 µM); the “Minimum inhibitory concentration, Pa FADDI-PA025” value was more than 32 µg/mL. For the same molecule, in the experiment with P. aeruginosa ATCC 27853, the “Δ log (Treated-Control at 4 h)” value was −0.04 log10 CFU/mL.
Regarding `CCCCCCCC(=O)N[C@@H](CCN)C(=O)N[C@H](C(=O)N[C@@H](CN)C(=O)N[C@H]1CCNC(=O)[C@H]([C@@H](C)O)NC(=O)[C@H](CCN)NC(=O)[C@H](CCN)NC(=O)[C@H](CC)NC(=O)[C@@H](Cc2ccccc2)NC(=O)[C@H](CCN)NC1=O)[C@@H](C)O` [Compound 130] (Octanoyl-[Dab]T[Dap][Dab][Dab][dF][Abu][Dab][Dab]T; lactam 4-C), in the experiment with Acinetobacter baumannii, the minimal inhibitory concentration (MIC) is 0.25 µg/mL (≈ 0.218 µM); the “Minimum inhibitory concentration, Ab A ATCC 17978” value came out at 0.25 µg/mL (≈ 0.218 µM); the “Minimum inhibitory concentration, Ab ATCC 19606” value was 0.25 µg/mL (≈ 0.218 µM); the “Minimum inhibitory concentration, Ab FADDI-AB034” value was found to be 0.25 µg/mL (≈ 0.218 µM). In addition, in the experiment on Enterobacter cloacae, the “Minimum inhibitory concentration, Ec FADDI-EC001” value is 0.25 µg/mL (≈ 0.218 µM); the “Minimum inhibitory concentration, Ec FADDI-EC003” value amounted to 0.25 µg/mL (≈ 0.218 µM); the “Minimum inhibitory concentration, Ec FADDI-EC006” value was found to be 1 µg/mL (≈ 0.872 µM). This molecule came in with an MIC in the experiment with Klebsiella pneumoniae of 0.5 µg/mL (≈ 0.436 µM). In the experiment with Pseudomonas aeruginosa, the minimum inhibitory concentration (MIC) was 0.5 µg/mL (≈ 0.436 µM); the “Minimum inhibitory concentration, Pa ATCC 27853” value was determined as 0.5 µg/mL (≈ 0.436 µM); the “Minimum inhibitory concentration, Pa FADDI-PA022” value came to 2 µg/mL (≈ 1.74 µM); the “Minimum inhibitory concentration, Pa FADDI-PA025” value is 2 µg/mL (≈ 1.74 µM). Also, the “Δ log (Treated-Control at 4 h)” value with P. aeruginosa ATCC 27853 is given as −3.66 log10 CFU/mL.
